Tests used:
[1] = system: Promega Mid-Range Molecular Weight Standards; assay: Post-electrophoretic detection of protein using NBODY derivatives; details: crude dye solution in 5% acetic acid, 20% ethanol, one hour
Procedure: Promega Mid-Range Molecular Weight Standards were diluted and heated as described in Example 27 to produce solutions containing 125, 25, 5 and 1 ng of protein per band in 10 microliters of solution. A 10% Tris Glycine, precast polyacrylamid gel from Novex Corp. (San Diego, Calif., USA, Cat. No. EC 6075.) was loaded with 10 microliters of the just described, diluted molecular weight standard solutions in lanes so that two lanes, each with the same diluted standard solution, were separated by a blank lane. The gel was developed using conditions recommended by the manufacturer and following development, the gel was cut in the blank lane. The segments were placed in 50 ml of 5% acetic acid, 20% ethanol. Six hundred microliters of the NBODY-C12 reaction mixture from Example 40 was added to the solution with one of the segments of a pair (of lanes with the same protein molecular weight standard solution) and three hundred microliters of the NBODY-C16 reaction mixture from Example 40 was added to the solution with the other segment of the same pair. After one hour of incubation, the gel segments were photographed on a transilluminator as described in example 27. Protein bands were detected in the lanes containing the 125 and 25 ng of protein per band using this method and the crude dye solutions from Example 40.

[2] = system: Promega Mid-Range Molecular Weight Markers; assay: Sensitive post-electrophoretic detection of protein using purified NBODY dye
Procedure: A 12% SDS-PAGE gel was prepared as described in Example 27 and was loaded with dilute Promega Mid-Range Molecular Weight Markers (diluted and heated as in Example 27) to produce lanes which contained 100, 80, 60, 40, 20, 10 and 5 ng of protein per band. The gel was run in a BioRad Miniprotean II gel system at 50V for 1.5 hr. then 125V until the tracking dye reached the bottom of the gel. After the dye reached the bottom of the gel, the gel was removed from the apparatus and placed in 50 ml of 5% acetic acid, 20% ethanol.
The NBODY dye prepared as in Example 40 with n-dodecyl amine was purified by applying 2 ml of the NBODY-C12 reaction mixture from Example 40 3cm from one edge of a 25×25cm silica gel plate (Sigma Chemical Co., St. Louis, […]., USA). The plate was developed using a 6:1 ratio of tolulene:ethyl acetate. […]
After 30 minutes in the 5% acetic acid, 20 % ethanol, the gel was removed from that solution and replaced with a solution containing the purified NBODY-C12 stain with the following composition: one ml of purified NBODY-C12 solution was placed in 50 ml of 35% ethanol, 5% acetic acid. […] After one hour in the water solution, the gel was scanned on a Molecular Dynamics Fluoroimager (Molecular Dynamics, Sunnyvale, Calif.), which excites fluorescence with laser light of 483 nm wavelength.

[3] = system: Promega Mid-Range Molecular Weight Standards; assay: Detection of proteins during SDS-PAGE with Acid Blue 25 dyes; details: 0.01% (w/v) in cathode buffer (Example 23)
Excerpt: Ten μl of each solution was loaded into lanes of the three gels, and they were placed into three separate Bio-Rad Miniprotean II gel apparati (Bio-Rad, Richmond, Calif., USA) with the cathode solutions containing 1.0, 0.75, or 0.5% (v/v) of the derivatized Acid Blue 25 preparation (unpurified). The samples were then fractionated within the gels by application of 15 mA of current per gel.

| Structure (SMILES) | lowest protein per band detected [1] [ng] | visibility of protein bands ([2]; lanes of 100 to 5 ng per band) | detection limit ([2]; purified dye in 35% ethanol, 5% acetic acid, one hour, water one hour, Fluoroimager 483 nm) | visibility of protein bands during electrophoresis [3] |
| --- | --- | --- | --- | --- |
| CCCCCCCCCCCCNC(=O)CCCCCNc1ccc([N+](=O)[O-])c2nonc12 [NBODY-C12] | 25 | Protein bands were seen for all of the protein species in the lanes containing all protein concentrations | lower than 5 ng |  |
| Nc1c(S(=O)(=O)O)cc(Nc2ccccc2)c2c1C(=O)c1ccccc1C2=O [unmodified Acid Blue 25] |  |  |  | no protein bands were seen |
